According to patent publication US9505716B2, “Pyrrolidine triple reuptake inhibitors” (SUNOVION PHARMACEUTICALS INC., priority 2009, dated 2016):

Legend:
[1] = target: T1, recombinant human norepinephrine transporter expressed in either HEK293 or MDCK cells (Homo sapiens, UniProt P23975); assay: Norepinephrine functional uptake assay for human reuptake transporter; assay type: cell-based; conditions: functional uptake of norepinephrine
T1 construct: expressed in transfected cells; host or cells: HEK293 or MDCK
Description: (§1) Compounds were initially tested at 10 μM in duplicate.
The cells were plated before the assay. Test compound and/or vehicle was preincubated with cells in modified HEPES buffer pH 7.1 or pH 7.4 for 20 minutes at 18 to 25° C. […] After the cells were washed to remove [^3H]norepinephrine not internalized, the cells were lysed, and the amount of tritium in the cell lysate was measured using a liquid scintillation counter to determine [^3H]norepinephrine uptake. Non-specific binding of tritium was measured in a control reaction containing […] (or […]), and was subtracted from the counts for assays to correct for non-specific binding of tritium. Reduction of [^3H]norepinephrine uptake by 50 percent or more (≧50%) relative to an uninhibited control reaction indicates significant inhibitory activity.

[2] = target: T2, recombinant human dopamine transporter expressed in either CHO-K1 or HEK293 cells (Homo sapiens, UniProt Q01959); assay: Dopamine functional uptake assay for human reuptake transporter; assay type: cell-based; conditions: functional uptake of dopamine
T2 construct: expressed in transfected cells; host or cells: CHO-K1 or HEK293
Description: as §1
Either CHO-K1 or HEK293 cells expressing human recombinant dopamine transporter were plated before the assay. Test compound and/or vehicle was preincubated with cells in modified HEPES buffer pH 7.1 or pH 7.4 for 20 minutes at 18 to 25° C. and 50 nM [^3H]dopamine was then added for an additional timed incubation period (10 to 30 minutes). After washing the cells to remove [^3H]dopamine not internalized, the cells were lysed, and the amount of tritium in the lysate was measured using a liquid scintillation counter to determine [^3H]dopamine uptake. Non-specific binding of tritium was measured in a control reaction containing 10 μM nomifensine, and was subtracted from the counts for assays to correct for non-specific binding of tritium. Reduction of [^3H]dopamine uptake by 50 percent or more (≧50%) relative to an uninhibited control reaction indicates significant inhibitory activity.

[3] = target: T3, recombinant human serotonin transporter expressed in HEK-293 cells (Homo sapiens, UniProt P31645); assay: Serotonin functional uptake assay for human reuptake transporter; assay type: cell-based; conditions: functional uptake of serotonin; read-out: hSERT (IC50 nM)
T3 construct: expressed in transfected cells; host or cells: HEK-293
Description: as §1
HEK-293 cells expressing human serotonin transporter were plated before the assay. […] Cells with internalized [^3H]serotonin were washed and the amount of tritium taken into cells is counted using a liquid scintillation counter to determine [^3H]serotonin uptake. Non-specific binding of tritium was measured in a control reaction containing […], and was subtracted from the counts for assays to correct for non-specific binding of tritium. Reduction of [^3H]serotonin uptake by 50 percent or more (≧50%) relative to an uninhibited control reaction indicates significant inhibitory activity.

[4] = in vivo; cited from earlier work
serotonin uptake sites = serotonin uptake sites (Homo sapiens, UniProt P31645); conditions: compared with the racemic compound; cited from earlier work
Chain of serotonin uptake sites (P31645 whole entry): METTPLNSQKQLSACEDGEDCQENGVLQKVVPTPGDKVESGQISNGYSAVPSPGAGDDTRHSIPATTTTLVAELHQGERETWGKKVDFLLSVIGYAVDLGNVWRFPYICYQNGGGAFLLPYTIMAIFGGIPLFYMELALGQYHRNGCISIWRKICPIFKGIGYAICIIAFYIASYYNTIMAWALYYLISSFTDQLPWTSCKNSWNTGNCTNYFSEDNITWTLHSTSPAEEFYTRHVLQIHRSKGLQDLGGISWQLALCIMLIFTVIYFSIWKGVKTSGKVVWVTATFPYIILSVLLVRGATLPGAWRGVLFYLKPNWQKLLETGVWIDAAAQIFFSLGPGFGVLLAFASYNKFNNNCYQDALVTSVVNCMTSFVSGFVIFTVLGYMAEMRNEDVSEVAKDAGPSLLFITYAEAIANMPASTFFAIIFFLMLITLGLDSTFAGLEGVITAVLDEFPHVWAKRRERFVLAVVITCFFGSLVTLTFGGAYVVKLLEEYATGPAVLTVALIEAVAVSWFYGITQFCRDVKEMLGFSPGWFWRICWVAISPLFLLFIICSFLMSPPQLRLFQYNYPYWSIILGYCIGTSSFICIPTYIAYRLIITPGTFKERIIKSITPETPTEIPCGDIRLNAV

T3 sequence (P31645 whole entry): as above
T2 sequence (Q01959 whole entry): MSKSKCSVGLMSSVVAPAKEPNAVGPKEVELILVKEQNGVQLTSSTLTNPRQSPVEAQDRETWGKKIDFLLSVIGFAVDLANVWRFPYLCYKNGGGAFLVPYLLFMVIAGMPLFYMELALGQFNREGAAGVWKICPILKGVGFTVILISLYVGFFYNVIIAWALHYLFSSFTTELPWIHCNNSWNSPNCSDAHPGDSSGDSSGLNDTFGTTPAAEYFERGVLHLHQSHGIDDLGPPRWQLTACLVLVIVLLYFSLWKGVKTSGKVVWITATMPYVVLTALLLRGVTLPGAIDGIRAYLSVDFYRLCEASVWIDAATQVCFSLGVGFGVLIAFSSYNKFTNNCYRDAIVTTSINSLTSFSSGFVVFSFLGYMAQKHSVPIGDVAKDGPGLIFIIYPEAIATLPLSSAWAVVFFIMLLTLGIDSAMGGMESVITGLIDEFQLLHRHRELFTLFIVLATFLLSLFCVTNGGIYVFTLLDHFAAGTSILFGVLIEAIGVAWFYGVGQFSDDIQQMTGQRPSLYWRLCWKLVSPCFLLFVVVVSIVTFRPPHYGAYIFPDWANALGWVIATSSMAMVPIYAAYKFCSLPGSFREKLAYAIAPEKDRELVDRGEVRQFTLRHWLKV
T1 sequence (P23975 whole entry): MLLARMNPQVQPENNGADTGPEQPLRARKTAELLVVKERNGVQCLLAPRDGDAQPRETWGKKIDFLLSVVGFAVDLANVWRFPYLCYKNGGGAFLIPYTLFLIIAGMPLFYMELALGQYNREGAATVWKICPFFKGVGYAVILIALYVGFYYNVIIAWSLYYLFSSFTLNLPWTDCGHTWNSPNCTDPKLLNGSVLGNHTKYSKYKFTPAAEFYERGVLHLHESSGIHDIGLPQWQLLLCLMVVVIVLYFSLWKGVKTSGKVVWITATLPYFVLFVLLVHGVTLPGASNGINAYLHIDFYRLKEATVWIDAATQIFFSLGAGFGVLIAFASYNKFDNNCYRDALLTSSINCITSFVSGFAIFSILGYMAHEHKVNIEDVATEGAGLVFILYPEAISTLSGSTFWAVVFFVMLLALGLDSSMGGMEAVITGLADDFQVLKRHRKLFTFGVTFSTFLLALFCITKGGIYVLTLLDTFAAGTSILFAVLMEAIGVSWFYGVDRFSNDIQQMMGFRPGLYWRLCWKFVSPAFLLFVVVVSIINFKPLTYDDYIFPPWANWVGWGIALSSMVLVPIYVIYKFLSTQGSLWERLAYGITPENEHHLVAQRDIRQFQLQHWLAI

SMILES | hNET (IC50 nM) [1] | hDAT (IC50 nM) [2] | IC50 [3] | immobility in the tail suspension test [4] | affinity for the serotonin uptake sites (serotonin uptake sites)
Clc1ccc(C2(C3CCNC3)CCCCC2)cc1Cl (single isomer, unassigned) [Compound 1] | +++ (IC50 < 10 nM) | ++ (IC50 ≦ 100 nM) | < 1 nM |  | 
Clc1ccc(C2(C3CCNC3)CCCCC2)cc1Cl (single isomer, unassigned) [Compound 2] | ++ (IC50 ≦ 100 nM) | ++ (IC50 ≦ 100 nM) | < 100 nM |  | 
Clc1ccc(C2(C3CCNC3)CCCC2)cc1Cl (single isomer, unassigned) [Compound 5] | ++ (IC50 ≦ 100 nM) | ++ (IC50 ≦ 100 nM) | < 100 nM |  | 
Clc1ccc(C2(C3CCNC3)CCCC2)cc1Cl (single isomer, unassigned) [Compound 6] | ++ (IC50 ≦ 100 nM) | ++ (IC50 ≦ 100 nM) | < 10 nM |  | 
Clc1ccc(C2(C3CCNC3)CCC2)cc1Cl (single isomer, unassigned) [Compound 7] | ++ (IC50 ≦ 100 nM) | +++ (IC50 < 10 nM) | < 100 nM |  | 
Clc1ccc(C2(C3CCNC3)CCC2)cc1Cl (single isomer, unassigned) [Compound 8] | ++ (IC50 ≦ 100 nM) | ++ (IC50 ≦ 100 nM) | < 100 nM |  | 
c1ccc2cc(C3(C4CCNC4)CCCCC3)ccc2c1 (single isomer, unassigned) [Compound 9] | + (100 nM < IC50 ≦ 500 nM) | ++ (IC50 ≦ 100 nM) | < 10 nM |  | 
c1ccc2cc(C3(C4CCNC4)CCCCC3)ccc2c1 (single isomer, unassigned) [Compound 10] | ++ (IC50 ≦ 100 nM) | ++ (IC50 ≦ 100 nM) | < 1 nM |  | 
c1ccc2cc(C3(C4CCNC4)CCCC3)ccc2c1 (single isomer, unassigned) [Compound 11] | +++ (IC50 < 10 nM) | +++ (IC50 < 10 nM) | < 1 nM |  | 
c1ccc2cc(C3(C4CCNC4)CCCC3)ccc2c1 (single isomer, unassigned) [Compound 12] | ++++ (IC50 < 1 nM) | ++ (IC50 ≦ 100 nM) | < 1 nM |  | 
c1ccc2cc(C3(C4CCNC4)CCC3)ccc2c1 (single isomer, unassigned) [Compound 13] | ++ (IC50 ≦ 100 nM) | ++ (IC50 ≦ 100 nM) | < 100 nM |  | 
c1ccc2cc(C3(C4CCNC4)CCC3)ccc2c1 (single isomer, unassigned) [Compound 14] | ++ (IC50 ≦ 100 nM) | ++ (IC50 ≦ 100 nM) | < 10 nM |  | 
Clc1ccc([C@@]23CNC[C@@H]2C3)cc1Cl (single isomer, unassigned) [DOV 21,947, (+)-1-(3,4-dichlorophenyl)-3-azabicyclo[3.1.0]hexane] |  |  |  | dose-dependent reduction in immobility | significantly greater affinity
CN1CCC(C2(c3ccc(Cl)c(Cl)c3)CCCCC2)C1 (centres unmarked) [Compound 3] | + (100 nM < IC50 ≦ 500 nM) | ++ (IC50 ≦ 100 nM) | 100 to 500 nM |  | 
CN1CCC(C2(c3ccc(Cl)c(Cl)c3)CCCCC2)C1 (centres unmarked) [Compound 4] | − (IC50 > 500 nM) | +++ (IC50 < 10 nM) | > 500 nM |  | 
Clc1ccc(C2(C3CCNC3)CCOCC2)cc1Cl (centres unmarked) [Compound 15] | ++ (IC50 ≦ 100 nM) | ++ (IC50 ≦ 100 nM) | < 100 nM |  | 

SMILES | hNET (IC50 nM) [1] | hDAT (IC50 nM) [2] | IC50 [3] | immobility in the tail suspension test [4] | affinity for the serotonin uptake sites (serotonin uptake sites)
Clc1ccc(C2(C3CCNC3)CCOCC2)cc1Cl (centres unmarked) [Compound 16] | +++ (IC50 < 10 nM) | +++ (IC50 < 10 nM) | < 10 nM |  | 
C[C@]1(O)CC[C@@](c2ccc(Cl)c(Cl)c2)([C@H]2CCNC2)CC1 [Compound 17] | +++ (IC50 < 10 nM) | ++ (IC50 ≦ 100 nM) | < 10 nM |  | 
C[C@]1(O)CC[C@@](c2ccc(Cl)c(Cl)c2)([C@@H]2CCNC2)CC1 [Compound 18] | +++ (IC50 < 10 nM) | ++ (IC50 ≦ 100 nM) | < 10 nM |  | 
C[C@]1(O)CC[C@](c2ccc(Cl)c(Cl)c2)([C@@H]2CCNC2)CC1 [Compound 19] | ++ (IC50 ≦ 100 nM) | +++ (IC50 < 10 nM) | < 10 nM |  | 
C[C@]1(O)CC[C@](c2ccc(Cl)c(Cl)c2)([C@H]2CCNC2)CC1 [Compound 20] | ++ (IC50 ≦ 100 nM) | +++ (IC50 < 10 nM) | < 10 nM |  | 
O[C@H]1CC[C@@](c2ccc(Cl)c(Cl)c2)([C@H]2CCNC2)CC1 [Compound 21] | +++ (IC50 < 10 nM) | ++ (IC50 ≦ 100 nM) | < 10 nM |  | 
O[C@H]1CC[C@@](c2ccc(Cl)c(Cl)c2)([C@@H]2CCNC2)CC1 [Compound 22] | +++ (IC50 < 10 nM) | +++ (IC50 < 10 nM) | < 10 nM |  | 
O[C@H]1CC[C@](c2ccc(Cl)c(Cl)c2)([C@H]2CCNC2)CC1 [Compound 23] | +++ (IC50 < 10 nM) | +++ (IC50 < 10 nM) | < 10 nM |  | 
O[C@H]1CC[C@](c2ccc(Cl)c(Cl)c2)([C@@H]2CCNC2)CC1 [Compound 24] | ++++ (IC50 < 1 nM) | +++ (IC50 < 10 nM) | < 1 nM |  | 
CO[C@]1(C)CC[C@](c2ccc(Cl)c(Cl)c2)([C@H]2CCNC2)CC1 [Compound 25] | ++ (IC50 ≦ 100 nM) | +++ (IC50 < 10 nM) | < 10 nM |  | 
CO[C@]1(C)CC[C@](c2ccc(Cl)c(Cl)c2)([C@@H]2CCNC2)CC1 [Compound 26] | +++ (IC50 < 10 nM) | +++ (IC50 < 10 nM) | < 100 nM |  | 
CO[C@]1(C)CC[C@@](c2ccc(Cl)c(Cl)c2)([C@@H]2CCNC2)CC1 [Compound 27] | +++ (IC50 < 10 nM) | ++ (IC50 ≦ 100 nM) | < 10 nM |  | 
CO[C@]1(C)CC[C@@](c2ccc(Cl)c(Cl)c2)([C@H]2CCNC2)CC1 [Compound 28] | +++ (IC50 < 10 nM) | ++ (IC50 ≦ 100 nM) | < 100 nM |  | 
O[C@@]1(C2(c3ccc(Cl)c(Cl)c3)CCCC2)CCNC1 [Compound 29] | +++ (IC50 < 10 nM) | ++ (IC50 ≦ 100 nM) | < 10 nM |  | 
O[C@]1(C2(c3ccc(Cl)c(Cl)c3)CCCC2)CCNC1 [Compound 30] | ++ (IC50 ≦ 100 nM) | ++ (IC50 ≦ 100 nM) | < 100 nM |  | 
